Patent US20080107761A1, “Composition and Method For Promoting the Production of and/or Enhancing the Activity of Fibulin-5” (Shiseido Company, Ltd., priority 2004, published 2008)

Tested on: fibulin-5 mRNA
Assay: Expression and determination of fibulin-5 mRNA in human fibroblasts by quantitative PCR
Type: cell-based
Conditions: for Effect on fibulin-5 production in human fibroblasts (% of the control) Mean ± SD: 24 hours culture, relative to no-addition control; for Effect of promoting fibulin-5 production (in words): summary of Table 1
Procedure: Adhering cells were suspended by a trypsin-ethylenediaminetetraacetic acid (EDTA) treatment and then filtered to obtain a homogeneous cell suspension. Cells were collected by centrifugation and suspended at 0.2x10^6 cells/ml. Three ml each of the cell suspension was inoculated to a 6-well plate. After the cells adhered, the medium was replaced with a 0.25% by weight FBS-containing DMEM. After culturing at 37° C for 24 hours, the medium was replaced with 0.25% by weight FBS-containing DMEM containing either of a few dozen of pharmaceutical agents. After culturing for further 24 hours, the culture supernatant was removed, and mRNA was recovered by the ABI PRISM 6100 Nucleic Acid PrepStation Kit (Applied Biosystems). […] The primers and probes used in this Example are as follows: The determination of mRNA expression was conducted in three groups, and was expressed in percentage relative to the mean of the no-addition control group.

`O=C(O)[C@@H]1C[C@@H](O)CN1` [L-hydroxyproline, (2S,4R)-4-hydroxypyrrolidine-2-carboxylic acid] was tested, and the “Effect on fibulin-5 production in human fibroblasts (% of the control) Mean ± SD” value (shortened to “Effect … (% of the control) Mean ± SD”) (25 μg/ml (0.0025% by weight)) was 110.1 ± 11.0 % of the control, the “Effect … (% of the control) Mean ± SD” value (250 μg/ml (0.025% by weight)) was 147.3 ± 8.9 % of the control and the “Effect of promoting fibulin-5 production (in words)” value was “significant effect of promoting fibulin-5 production”.
With `O=P(O)(O)O[C@H]1[C@H](OP(=O)(O)O)[C@@H](OP(=O)(O)O)[C@H](OP(=O)(O)O)[C@@H](OP(=O)(O)O)[C@H]1OP(=O)(O)O` [phytic acid, myo-inositol hexakis- phosphate] the “Effect … (% of the control) Mean ± SD” value (25 μg/ml (0.0025% by weight)) was 93.0 ± 24.4 % of the control, the “Effect … (% of the control) Mean ± SD” value (250 μg/ml (0.025% by weight)) was 126.1 ± 16.4 % of the control and the “Effect of promoting fibulin-5 production (in words)” value was “significant effect of promoting fibulin-5 production”.
